Assay results: publication PMC12616682, “Identification of a Highly Cooperative PROTAC Degrader Targeting GTP-Loaded KRAS(On) Alleles” (Journal of the American Chemical Society, 2025)
Read-outs that look alike come from different tables or passages of the source.

Columns and labels:
[1] = target: T1, HiBiT-KRAS^G12D in GP5d cells (Homo sapiens, UniProt P01116, G12D); experiment: HiBiT degradation assay, HiBiT-KRAS^G12D GP5d cells; format: cell-based; conditions: for Dmax / DC50: Gp5D (HiBit-G12D)
T1 construct: host or cells: GP5d HiBiT KRAS G12D

[2] = target: T2, KRAS^Q61L in SW948 cells (Homo sapiens, UniProt P01116, Q61L); experiment: Endogenous KRAS degradation by Western blot in SW948 cells; format: cell-based
T2 construct: host or cells: SW948

[3] = target: T3, KRAS^G12R in KP-2 cells (Homo sapiens, UniProt P01116, G12R); experiment: Endogenous KRAS degradation by Western blot in KP-2 cells; format: cell-based; conditions: KP-2 (G12R)
T3 construct: host or cells: KP-2

[4] = target: T4, HiBiT-KRAS^G12R in Cal-62 cells (Homo sapiens, UniProt P01116, G12R); experiment: Kinetic degradation (live mode), Cal-62 HiBiT KRAS^G12R cells; format: cell-based; conditions: Cal62-HiBit (G12R)
T4 construct: generated a HiBiT-KRAS^G12R Cal-62 knock-in cell line using the CRISPR Cas9 technology; endogenous in cells; host or cells: Cal-62 HiBiT KRAS G12R (in-house CRISPR knock-in)

[5] = test system: Calu-6 cells; experiment: CellTiter-Glo anti-proliferation, Calu-6; format: cell-based, human; conditions: Calu-6 (Q61K)
[6] = target: T5, KRAS^Q61K in Calu-6 cells (Homo sapiens, UniProt P01116, Q61K); experiment: Endogenous KRAS degradation by Western blot in Calu-6 cells; format: cell-based; conditions: Calu-6 (Q61K)
T5 construct: host or cells: Calu-6

[7] = target: T4, HiBiT-KRAS^G12R in Cal-62 cells; experiment: HiBiT degradation assay, HiBiT-KRAS^G12R Cal-62 cells; format: cell-based; conditions: Cal-62 (HiBitG12R)
Procedure: (Gibco) with 10% FBS in a humidiﬁed cell incubator at 37 °C and 5% CO2.
Plasmids pSpCas9 BB-2A-GFP (PX458) containing gRNA, Cas9 and GFP sequences and […] plasmid containing ssDNA donor template were purchased from Genscript. Cal-62 cells were plated at 5x10^5 cells in a 6-well plate and left to adhere overnight. The next day, the transfection plasmids (0.5 µg of each gRNA plasmid and 0.5 µg of donor template) were diluted in Opti-MEM, combined with Lipofectamine solution in Opti-mem according to the manufacturer’s protocol and incubated for 20 min at RT. The mixture was added to the cells and incubated for 24 h. The next day the media was exchanged, and the cells were left to incubate for another 24 h. GFP positive cells were single-cell sorted into 96-well plates using ﬂuorescence-activated cell sorting (FACS) at the Flow Cytometry and Cell Sorting Facility (University of Dundee). Sorted cells were left to grow in conditioned media supplemented with 20% FBS for 3 weeks. Formed colonies were tested for the expression of HiBiT KRAS using the Nano-Glo® HiBiT Lytic system (Promega). The positive clones were additionally tested for insertion of the HiBiT tag by western blotting for KRAS (mouse anti-KRAS, LsBio) and HiBiT (mouse anti-HiBiT, Promega) and the insert was further conﬁrmed by Sanger sequencing. […]
gRNA1: 5’ […] 3’, gRNA2: 5’ […] 3’, gRNA 3: 5’ […]
template DNA: 5’ caatccagctt tatttgacac tcattctctc aactctcatc tgattcttac tgttaatatt tatccaagag aactactgcc atgatgcttt aaaagttttt ctgtagctgt tgcatattga cttctaacac ttagaggtgg gggtccacta ggaaaactgt aacaataaga gtggagatag ctgtcagcaa cttttgtgag ggtgtgctac agggtgtaga gcactgtgaa gtctctacat gagtgaagtc atgatatgat cctttgagag cctttagccg ccgcagaaca gcagtctggc tatttagata gaacaacttg attttaagat aaaagaactg tctatgtagc atttatgcat ttttcttaag cgtcgatgga ggagtttgta aatgaagtac agttcattac gatacacgtc tgcagtcaac tggaattttc atgattgaat tttgtaaggt attttgaaat aatttttcat ataaaggtga gtttgtatta aaaggtactg gtggagtatt tgatagtgta ttaaccttat gtgtgacatg ttctaatata gtcacatttt cattattttt attataaggc ctgctgaaa […]
atg[…]act gaGtaCaaGctCgtAgtagttggag ctCgtggc gta ggc aag agt gcc ttA acAatCcaActaattcagaatcat tttgtggacg aatatgatcc aacaatagag gtaaatcttg ttttaatatg catattactg gtgcaggacc attctttgat acagataaag gtttctctga ccattttcat gagtacttat tacaagataa ttatgctgaa agttaagtta tctgaaatgt accttgggtt tcaagttata tgtaaccatt aatatgggaa ctttactttc cttgggagta tgtcagggtc catgatgttc actctctgtg cattttgatt ggaagtgtat ttcagagttt cgtgagaggg tagaaatttg tatcctatct ggacctaaaa gacaatcttt ttattgtaac ttttattttt atgggtttct tggtattgtg acatcatatg taaaggttag atttaattgt actagtgaaa tataattgtt tgatggttga tttttttaaa cttcatcagc agtattttcc tatcttcttc tcaacattag agaacctaca actaccggat aaattttaca aaatgaatta tttgcctaag gtgtggttta tataaaggta ctattaccaa ctttaccttt gctttgttgt catttttaaa tttactcaag gaaatactag gatttaaaaa aaaattcctt 3’
Degradation via Detection of Split Nanoluciferase (HiBiT)
To assess PROTAC-mediated degradation of HiBiT-tagged KRAS constructs, cells were seeded at […]
further incubated at 37 °C for 4 and 24 h. Following incubation, 20 µL per well of Promega Nano-Glo® HiBiT lytic detection reagent mix (Promega Nano-Glo® HiBiT Lytic Detection System […]
plotted as percent of DMSO control.

[8] = target: T6, KRAS^G12D in GP5d cells (Homo sapiens, UniProt P01116, G12D); experiment: Endogenous KRAS degradation by Western blot in GP5d cells; format: cell-based
T6 construct: comparison of the degradative effect on endogenous KRAS; host or cells: GP5d

[9] = target: T7, KRAS^G12R in Cal-62 cells (Homo sapiens, UniProt P01116, G12R); experiment: Endogenous KRAS degradation by Western blot in Cal-62 cells; format: cell-based; conditions: Cal-62 (G12R)
T7 construct: Potent degradation of endogenous KRAS^G12R was achieved by ACBI4 in the Cal-62 cell line; host or cells: Cal-62

[10] = test system: Cal-62 cells; experiment: CellTiter-Glo anti-proliferation, Cal-62; format: cell-based, human; conditions: Cal-62 (G12R)
[11] = target: KRAS^WT-GDP (Homo sapiens, UniProt P01116); experiment: Binary SPR KRAS^WT-GDP (protocol from Lito et al.); conditions: read-out: KRAS^WT-GDP KD
[12] = Homo sapiens, 72 h, read-out: CTG 72h Ic50

Row | Dmax ([1]; 4 h, read-out: DMax 4h) | DC50 ([1]; 4 h, read-out: Dc50 4h) | Dmax ([1]; 24 h, read-out: DMax 24h) | DC50 ([1]; 24 h, read-out: Dc50 24h) | Dc50 4h ([2]; 4 h) | Dmax ([2]; 18 h, read-out: DMax 18h) | Dmax ([3]; 18 h, read-out: DMax 18h) | DC50 ([3]; 18 h, read-out: Dc50 18h) | 1/K (Tau) [4] | Plateau (degradation rate) [4] | Plateu/ Tau [4] | Dmax ([6]; 4 h, read-out: DMax 4h) | Dmax ([7]; 24 h, read-out: DMax 24h) | DC50 ([7]; 24 h, read-out: Dc50 24h) | Dmax ([8]; 4 h, read-out: DMax 4h) | DC50 ([8]; 4 h, read-out: Dc50 4h) | Dmax ([8]; 18 h, read-out: DMax 18h) | Dmax ([9]; 18 h, read-out: DMax 18h) | DC50 ([9]; 18 h, read-out: Dc50 18h) | SMILES | further results
1 | 83% | 14 nM | 94% | 4 nM | unstable | 50% | 70% | 224 nM | 1.972 µM | 0.2614 min⁻¹ | 2207 M⁻¹ s⁻¹ | 25% | 87% | 183 nM | 83.5% | 68 nM | 96.5% | 93% | 418 nM | CC(C)C(C(=O)N1C[C@H](O)C[C@H]1C(=O)NCc1ccc2cnn(C)c2c1)n1nnc2c1CCC(CCCN1CCCN(c3nccc(-c4noc([C@@]5(C)CCCc6sc(N)c(C#N)c65)n4)n3)[C@@H](C)C1)C2 (mixture of isomers) [Compound 4] | fold improvement in DC50 over 3 ([1]; HiBiT-KRAS^G12D, 24 h): ~9 fold; Dmax ([2]; 4 h, read-out: DMax 4h): 49%; Dc50 18h ([2]; 18 h): unstable; Dmax ([3]; 4 h, read-out: DMax 4h): 37%; DC50 ([3]; 4 h, read-out: Dc50 4h): 6 nM; CTG 72h Ic50 [5]: unstable; DC50 ([6]; 4 h, read-out: Dc50 4h): 146 nM; Dmax ([6]; 18 h, read-out: DMax 18h): 72%; DC50 ([6]; 18 h, read-out: Dc50 18h): 187 nM; Dmax ([7]; 4 h, read-out: DMax 4h): 76%; DC50 ([7]; 4 h, read-out: Dc50 4h): 163 nM; DC50 ([8]; 18 h, read-out: Dc50 18h): 16 nM; Dmax ([9]; 4 h, read-out: DMax 4h): 64%; DC50 ([9]; 4 h, read-out: Dc50 4h): 1530 nM; IC50 [10, 12]: 488 nM
2 | 79% | 9.9 nM | 94% | 2.5 nM | unstable | 45% | 50% | 961 nM | unstable | unstable | unstable | 11% | 31% | 114 nM | 98.3% | 7.3 nM | 100% | 9% | 282 nM | Cc1ncsc1-c1ccc([C@H](CO)NC(=O)[C@@H]2C[C@@H](O)CN2C(=O)[C@H](C(C)C)n2cc(OCCCCN3CCCN(c4nccc(-c5noc([C@@]6(C)CCCc7sc(N)c(C#N)c76)n5)n4)[C@@H](C)C3)nn2)cc1 [ACBI3, reference compound] | Kd [11]: 4.9 ± 2.6 nM; DMax 4h ([2]; 4 h): unstable; DC50 ([2]; 18 h, read-out: Dc50 18h): 10000 nM; DMax 4h ([3]; 4 h): unstable; Dc50 4h ([3]; 4 h): unstable; IC50 [5, 12]: 338 nM; Dc50 4h ([6]; 4 h): unstable; DMax 18h ([6]; 18 h): unstable; Dc50 18h ([6]; 18 h): unstable; DMax 4h ([7]; 4 h): unstable; Dc50 4h ([7]; 4 h): unstable; DMax 4h ([9]; 4 h): unstable; Dc50 4h ([9]; 4 h): unstable; CTG 72h Ic50 [10]: unstable
